Here are results for 27 compounds from patent US10207989B2, “Substituted alkyl diaryl derivatives, methods of preparation and uses” (TEMPLE UNIVERSITY—OF THE COMMONWEALTH SYSTEM OF HIGHER …, priority 2012, dated 2019).

Each structure is given as a SMILES string. Some results are limits rather than exact numbers.

Data set [1] has as its system K562 (chronic myelogenous leukemia; leukemia cell line +ve for Bcr-Abl). As to the kind of experiment: Cancer cell assay, tumor cells K562. Type of data set: cell-based. The settings on record: Homo sapiens, compound in DMSO 0.01 μM to 100 μM, examined 96 hours later, viable cells by trypan blue exclusion. How it is done:
(§1) The effect of the compounds of the invention on tumor cells was determined by the assay described by Latham et al., Oncogene 12:827-837 (1996). Tumor cells K562 (chronic myelogenous leukemia; leukemia cell line +ve for Bcr-Abl) or DU145 (prostate cancer) were plated in 12-well dishes at a cell density of 2.5×10^4 cells well. The plated cells were treated 24 hours later with a compound of the invention dissolved in DMSO at multiple concentrations ranging from 0.01 μM to 100 μM. The plates were examined 96 hours later under an inverted microscope, Olympus CK-2 using a 10× objective, and compound activity was noted by physical observation. When necessary, the total number of viable cells was determined by trypsinizing the wells and counting the number of viable cells, as determined by trypan blue exclusion, using a hemacytometer.

The next data set deals with DU145 (prostate cancer). Nature of the data set: Cancer cell assay, tumor cells DU145. Type of data set: cell-based. The settings on record: Homo sapiens, examined 96 hours later, viable cells by trypan blue exclusion. How it is done:
as §1

Where [2] appears, read: DU-145, compound in DMSO 0.01 μM to 100 μM.

A word on the IC50: it is the midpoint of a concentration-inhibition curve. The low end stands for higher potency, the high end for lower potency. On to `COc1cc(OC)c(CCNS(=O)(=O)c2ccc(OC)c(N)c2)c(OC)c1` [Example 26, 3-amino-4-methoxy-N-(2,4,6-trimethoxyphenethyl)benzenesulfonamide], for which the half-inhibitory concentration (IC50) worked out at 0.75 µM in data set [1] and 5 µM with DU145 (prostate cancer) (setting [2]).
What is called melting point is the temperature, or range, at which the solid turns liquid. In turn, `O=S(=O)(CCc1ccc(F)cc1)Cc1ccc(Cl)cc1` [Example 2, 1-Chloro-4-(((4-fluorophenethyl)sulfonyl)methyl)benzene] returned a melting point of 142 to 144 °C. In data set [1], this compound yielded a concentration for half-maximal inhibition (IC50) of 1.5 µM. In the data set on DU145 (prostate cancer) (setting [2]), this compound displayed an IC50 of 1.5 µM.
Consider `COc1ccc(S(=O)(=O)NCCc2c(OC)cc(OC)cc2OC)cc1` [Example 28, 4-methoxy-N-(2,4,6-trimethoxyphenethyl)benzenesulfonamide], for which the half-inhibitory concentration (IC50) (in data set [1]; in the data set with DU145 (prostate cancer) (setting [2])) was over 10 µM in each case.
Consider `COc1cc(CS(=O)(=O)CCc2ccc(OC)c(OC)c2)ccc1O` [Example 38, 4-(((3,4-dimethoxyphenethyl)sulfonyl)methyl)-2-methoxyphenol], for which the IC50 (in data set [1]; in the data set on DU145 (prostate cancer) (setting [2])) was over 10 µM in each case.
The compound `O=C(O)c1ccc(CCS(=O)(=O)Cc2ccc(Cl)cc2)cc1` [Example 6, 4-(2-((4-Chlorobenzyl)sulfonyl)ethyl)benzoic acid] yielded a melting point of 265 to 267 °C. The same compound showed an IC50 in data set [1] of 10 µM. In the data set on DU145 (prostate cancer) (setting [2]), this compound gave an IC50 of 10 µM.
Regarding `COc1ccc(CCNC(=O)c2ccc(OC)cc2)cc1` [Example 31, 4-methoxy-N-(4-methoxyphenethyl)benzamide], the half-maximal inhibitory concentration (IC50) is 100 µM in data set [1] and 75 µM in the data set with DU145 (prostate cancer) (setting [2]).
For `COc1cc(OC)c(CCS(=O)(=O)Cc2ccc(OC)c(NCC(=O)O)c2)c(OC)c1` [Example 21, 2 ((2-methoxy-5-(((2,4,6-trimethoxyphenethyl)sulfonyl)methyl)phenyl)amino)acetate], the IC50 was 0.04 µM in data set [1] (K562, 96 h) and 0.15 µM in the data set on DU145 (prostate cancer) (DU-145, 96 h, compound in DMSO 0.01 μM to 100 μM).
As to `COc1cc(CSCCc2ccc(OC)c(OC)c2)ccc1O` [Example 37, 4-(((3,4-dimethoxyphenethyl)thio)methyl)-2-methoxyphenol], the 50% inhibitory concentration (IC50) came out at 5 µM in data set [1] and 15 µM in the data set with DU145 (prostate cancer) (setting [2]).
In the same order, the values of `COc1ccc(CCNS(=O)(=O)c2ccc(OC)cc2)cc1` [Example 27, 4-methoxy-N-(4-methoxyphenethyl)benzenesulfonamide] are 75 µM and 75 µM.
For the compound `COc1cc(OC)c(CCS(=O)(=O)Nc2ccc(OC)c(N)c2)c(OC)c1` [Example 19, N-(3-Amino-4-methoxyphenyl)-2-(2,4,6-trimethoxyphenyl)ethanesulfonamide], the concentration for half-maximal inhibition (IC50) in data set [1] came out at 0.003 µM; in the data set with DU145 (prostate cancer) (setting [2]), 0.005 µM.
As for `COc1ccc(CCNC(=O)c2ccc(OC)c([N+](=O)[O-])c2)cc1` [Example 32, 4-methoxy-N-(4-methoxyphenethyl)-3-nitrobenzamide], the half-inhibitory concentration (IC50) (in data set [1]; with DU145 (prostate cancer) (setting [2])) was 75 µM each time.
`COc1cc(OC)c(CCNS(=O)(=O)c2ccc(OC)c([N+](=O)[O-])c2)c(OC)c1` [Example 25, 4-methoxy-3-nitro-N-(2,4,6-trimethoxyphenethyl)benzenesulfonamide]: the IC50 (in data set [1]; in the data set with DU145 (prostate cancer) (setting [2])) was 35 µM throughout.
`COC(=O)CN(CC(=O)OC)c1cc(CS(=O)(=O)CCc2c(OC)cc(OC)cc2OC)ccc1OC` [Example 9, Dimethyl 2,2′-((2-methoxy-5-(((2,4,6-trimethoxyphenethyl)sulfonyl)methyl)phenyl)azanediyl)diacetate] had a melting point of 86 to 88 °C. Also, in data set [1], the IC50 is 2 µM. The IC50 in the data set with DU145 (prostate cancer) (setting [2]) came out at 2 µM.
In the case of `COc1cc(OC)c(CCS(=O)(=O)Cc2ccc(OC)c(NCC(=O)O)c2)c(OC)c1` [Example 4], the melting point lay within 146 to 150 °C. This compound came in with an IC50 in data set [1] of 0.5 µM. In addition, half-maximal inhibition in the data set with DU145 (prostate cancer) (setting [2]) (IC50) required 0.25 µM.
With `COc1ccc(C(=O)NCCc2c(OC)cc(OC)cc2OC)cc1` [Example 30, 4-methoxy-N-(2,4,6-trimethoxyphenethyl)benzamide], the results for the IC50 (in data set [1]; with DU145 (prostate cancer) (setting [2])) were 5 µM and 15 µM, respectively.
For `COc1cc(OC)c(CCS(=O)(=O)Cc2ccc(OC)c(O)c2)c(OC)c1` [Example 5, 2-Methoxy-5-(((2,4,6-trimethoxyphenethyl)sulfonyl)methyl)phenol], the melting point fell in the range of 136 to 138 °C. In data set [1], half-maximal inhibition (IC50) required 0.003 µM. It took 0.0075 µM to reach half-maximal inhibition in the data set on DU145 (prostate cancer) (setting [2]) (IC50).
As to `COc1ccc(CCNC(=O)c2ccc(OC)c(N)c2)cc1` [Example 33, 3-amino-4-methoxy-N-(4-methoxyphenethyl)benzamide], the IC50 (in data set [1]; with DU145 (prostate cancer) (setting [2])) was 75 µM each time.
For the compound `COc1cc(OC)c(CCNC(=O)c2ccc(OC)c([N+](=O)[O-])c2)c(OC)c1` [Example 34, 4-methoxy-3-nitro-N-(2,4,6-trimethoxyphenethyl)benzamide], the half-inhibitory concentration (IC50) (in data set [1]; with DU145 (prostate cancer) (setting [2])) was 75 µM each time.
`COc1cc(OC)c(CCS(=O)(=O)Cc2ccc(OC)c(N)c2)c(OC)c1` [Example 3, 2-Methoxy-5-(((2,4,6-trimethoxyphenethyl)sulfonyl)methyl)aniline]: the melting point was 128 to 130 °C. This compound also yielded an IC50 in data set [1] of 0.0025 µM. In the data set with DU145 (prostate cancer) (setting [2]), this compound gave a 50% inhibitory concentration (IC50) of 0.003 µM.
Take `COc1cc(OC)c(CCNS(=O)(=O)c2ccc(C)cc2)c(OC)c1` [Example 29, 4-methyl-N-(2,4,6-trimethoxyphenethyl)benzenesulfonamide]: the IC50 (in data set [1]; in the data set on DU145 (prostate cancer) (setting [2])) was over 10 µM throughout.
On to `COc1ccc(CS(=O)(=O)CCc2c(OC)cc(OC)cc2OC)cc1` [Example 20, 1,3,5-Trimethoxy-2-(2-((4-methoxybenzyl)sulfonyl)ethyl)benzene], for which the IC50 in data set [1] stood at 0.05 µM; with DU145 (prostate cancer) (setting [2]), 0.15 µM.
`COc1cc(OC)c(CCNC(=O)c2ccc(OC)c(N)c2)c(OC)c1` [Example 35, 3-amino-4-methoxy-N-(2,4,6-trimethoxyphenethyl)benzamide]: the IC50 stood at 0.5 µM in data set [1] and 5 µM in the data set with DU145 (prostate cancer) (setting [2]).
As for `COc1ccc(CCNS(=O)(=O)c2ccc(C)cc2)cc1` [Example 22, N-(4-methoxyphenethyl)-4-methylbenzenesulfonamide], the IC50 (in data set [1]; in the data set with DU145 (prostate cancer) (setting [2])) was 60 µM throughout.
For `COC(=O)CNc1cc(CS(=O)(=O)CCc2c(OC)cc(OC)cc2OC)ccc1OC` [Example 8], the IC50 (in data set [1]; in the data set on DU145 (prostate cancer) (setting [2])) was 0.15 µM in each case.
With `COc1ccc(CCNS(=O)(=O)c2ccc(OC)c([N+](=O)[O-])c2)cc1` [Example 23, 4-methoxy-N-(4-methoxyphenethyl)-3-nitrobenzenesulfonamide], the concentration for half-maximal inhibition (IC50) (in data set [1]; in the data set on DU145 (prostate cancer) (setting [2])) was 35 µM throughout.
`COc1cc(OC)c(CCC(=O)Nc2ccc(OC)c(N)c2)c(OC)c1` [Example 7, N-(3-Amino-4-methoxyphenyl)-3-(2,4,6-trimethoxyphenyl)propanamide]: the concentration for half-maximal inhibition (IC50) in data set [1] was 0.15 µM; with DU145 (prostate cancer) (setting [2]), 5 µM.
The matching figures for `COc1ccc(CCS(=O)(=O)Nc2c(OC)cc(OC)cc2OC)cc1` [Example 36, 2-(4-methoxyphenyl)-N-(2,4,6-trimethoxyphenyl)ethanesulfonamide]: 2.5 µM and 15 µM.
